# Calls of active or inactive are those of the source.
# How the values were obtained:
# [1] = test system: SN12K1; assay: cells; assay type: functional; settings: Homo sapiens
# [2] = test system: P388; assay: cells; assay type: functional; settings: Mus musculus
# [3] = test system: P388/ADR; assay: cells; assay type: functional; settings: Mus musculus
# [4] = molecular target: Large T antigen (Simian virus 40, UniProt P03070); assay type: functional, Betapolyomavirus macacae;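 also: Confirmatory-stage PubChem screen for compounds that inhibit SV40 T antigen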
# Chain of Large T antigen (P03070 whole entry): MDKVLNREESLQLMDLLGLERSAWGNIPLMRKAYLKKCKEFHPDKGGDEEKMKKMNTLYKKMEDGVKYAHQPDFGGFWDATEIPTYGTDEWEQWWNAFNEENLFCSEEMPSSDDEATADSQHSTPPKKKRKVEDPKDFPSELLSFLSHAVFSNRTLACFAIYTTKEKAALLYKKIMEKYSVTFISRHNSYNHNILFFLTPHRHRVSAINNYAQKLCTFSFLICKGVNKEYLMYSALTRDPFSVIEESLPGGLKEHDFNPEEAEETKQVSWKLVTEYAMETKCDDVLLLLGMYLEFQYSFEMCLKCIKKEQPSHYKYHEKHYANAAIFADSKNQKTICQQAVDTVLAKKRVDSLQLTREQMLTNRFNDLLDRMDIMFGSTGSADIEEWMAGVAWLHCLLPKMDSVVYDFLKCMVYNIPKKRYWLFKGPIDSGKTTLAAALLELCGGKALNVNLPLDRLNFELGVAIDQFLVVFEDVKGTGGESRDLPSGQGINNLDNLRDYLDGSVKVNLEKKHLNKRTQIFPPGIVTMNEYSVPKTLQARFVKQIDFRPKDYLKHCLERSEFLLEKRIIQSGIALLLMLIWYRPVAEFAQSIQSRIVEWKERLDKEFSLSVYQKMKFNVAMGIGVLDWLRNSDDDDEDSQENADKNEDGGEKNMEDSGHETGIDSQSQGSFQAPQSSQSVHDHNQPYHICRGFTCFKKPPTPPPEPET
# [5] = molecular target: T1, Protein skinhead-1 (Caenorhabditis elegans, UniProt P34707); assay type: functional
# T1 sequence (P34707 whole entry): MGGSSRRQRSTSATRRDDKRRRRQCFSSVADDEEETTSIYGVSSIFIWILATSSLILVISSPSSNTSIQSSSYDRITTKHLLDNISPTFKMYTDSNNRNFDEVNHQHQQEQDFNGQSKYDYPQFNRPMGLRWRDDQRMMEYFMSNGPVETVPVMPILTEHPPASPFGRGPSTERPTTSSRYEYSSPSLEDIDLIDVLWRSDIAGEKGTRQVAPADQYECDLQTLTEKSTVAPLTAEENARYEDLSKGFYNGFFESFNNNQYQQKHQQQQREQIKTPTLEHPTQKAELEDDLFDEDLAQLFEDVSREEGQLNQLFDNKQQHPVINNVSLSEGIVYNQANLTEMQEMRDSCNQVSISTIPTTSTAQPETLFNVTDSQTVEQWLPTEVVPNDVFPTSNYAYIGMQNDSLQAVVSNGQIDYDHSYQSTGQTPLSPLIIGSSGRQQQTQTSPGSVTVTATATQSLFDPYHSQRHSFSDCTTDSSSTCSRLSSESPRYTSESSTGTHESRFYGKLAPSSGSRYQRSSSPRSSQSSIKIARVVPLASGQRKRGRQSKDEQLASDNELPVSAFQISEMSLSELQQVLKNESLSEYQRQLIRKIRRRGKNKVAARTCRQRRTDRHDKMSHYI
# [6] = cells; assay type: functional, cell-based
# [7] = cells; assay type: functional, cell-based; remark: listed apart in the source
# [8] = Shn3 3'UTR reporter inhibitors, dose response, cell-based, Clone20 osteoblasts, firefly luciferase, cherry-picked (AID 624132); assay type: functional;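 also: firefly luciferase luminescence from reporter carrying the Shn3 3'UTR in osteoblasts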
# [9] = HepG2 cell cytotoxicity, dose response, cytotoxicity control for Shn3 inhibitor project, CellTiter-Glo, cherry-picked (AID 624134); assay type: functional, cell-based
# [10] = control 3'UTR Renilla luciferase suppression, dose response, counter-screen for Shn3 inhibitor project, cell-based, Clone20-Shn3RL, cherry-picked (AID 624133); assay type: functional
# [11] = inhibitors of SNCA 5'UTR-driven reporter translation, confirmation, H4 neuroglioma cells, luminescence (AID 1988); assay type: functional, cell-based
# [12] = Luminescence Cell-Based Dose Response HTS to Identify Inhibitors of 5'UTR Stem-Loop Driven Prion Protein mRNA Translation in H4 Neuroglioblastoma Cells. [Related pubchem assays: 1827 (Project Summary), 1813 (Primary HTS)]; assay type: functional
# [13] = test system: HEK293; assay: inhibitors of LMP1-driven NF-kB reporter, dose response, cell-based, HEK293, luciferase, cherry-pick (AID 588343); assay type: functional; settings: Homo sapiens
# [14] = inhibitors of firefly luciferase expression or activity, dose response, H4 neuroglioma cells, luminescence (AID 1990); assay type: functional, cell-based
# [15] = cytotoxicity toward NIH3T3 fibroblasts, dose response, counter-screen, cell-based, ATP luminescence, mouse fibroblasts (AID 2010); assay type: functional;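 also: cells exposed to compound for about 90 hours before reading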
# [16] = molecular target: T2, Heat shock factor protein 1 (Mus musculus, UniProt P38532); assay: HSF1 potentiators in luciferase reporter cells, confirmation, cell-based, NIH3T3, luminescence, dose retest (AID 435004); assay type: functional;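 also: stress induced by proteasome inhibitor MG132 added 30 min after compound; luciferase reporter driven by HSF1 response element in NIH3T3 cells; actives raise luminescence as potentiators of the MG132 stress response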
# T2 sequence (P38532 whole entry): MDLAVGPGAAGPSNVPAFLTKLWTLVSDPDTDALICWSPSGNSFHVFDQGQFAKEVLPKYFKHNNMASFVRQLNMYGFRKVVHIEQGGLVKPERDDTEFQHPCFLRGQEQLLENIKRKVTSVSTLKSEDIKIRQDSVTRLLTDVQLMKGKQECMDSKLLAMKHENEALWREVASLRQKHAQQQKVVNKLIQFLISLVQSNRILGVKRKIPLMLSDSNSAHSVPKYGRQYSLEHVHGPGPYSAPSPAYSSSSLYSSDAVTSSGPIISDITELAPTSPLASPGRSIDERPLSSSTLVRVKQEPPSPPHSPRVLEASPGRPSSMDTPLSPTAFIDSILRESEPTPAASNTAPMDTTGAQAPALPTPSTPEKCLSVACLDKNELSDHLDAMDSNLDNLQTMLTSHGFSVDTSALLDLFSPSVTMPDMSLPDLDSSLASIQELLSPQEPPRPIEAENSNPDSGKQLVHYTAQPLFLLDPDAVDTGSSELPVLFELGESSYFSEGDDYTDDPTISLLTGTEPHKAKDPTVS
# [17] = inhibitors of intracellular T. cruzi replication, confirmation, NIH3T3 host cells, beta-gal luminescence (AID 2044); assay type: functional, cell-based;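 also: intracellular parasites grown in NIH/3T3 mouse fibroblasts as host cells; luminescent beta-galactosidase reporter signal from transgenic T. cruzi replicating inside host cells; inhibitors lower the luminescence signal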
# [18] = test system: INS1; assay: beta cell apoptosis inhibitors, cytokine rescue, dose response, luminescence, retest (AID 449756); assay type: functional, cell-based; settings: Rattus norvegicus;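 also: cell death triggered by IL-1 beta plus TNF-alpha plus IFN-gamma mixture; protective hits raise ATP signal compared with cytokine alone wells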
# [19] = molecular target: T3, Streptokinase A (Streptococcus pyogenes serotype M1, UniProt P10520); assay: S. pyogenes streptokinase expression inhibitors, potency, dose response, plasminogen activation absorbance, OD405 (AID 1914); assay type: functional, Streptococcus pyogenes M1 GAS;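 also: secreted streptokinase activity via plasminogen activation per viability signal from cell pellet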
# T3 sequence (P10520 whole entry): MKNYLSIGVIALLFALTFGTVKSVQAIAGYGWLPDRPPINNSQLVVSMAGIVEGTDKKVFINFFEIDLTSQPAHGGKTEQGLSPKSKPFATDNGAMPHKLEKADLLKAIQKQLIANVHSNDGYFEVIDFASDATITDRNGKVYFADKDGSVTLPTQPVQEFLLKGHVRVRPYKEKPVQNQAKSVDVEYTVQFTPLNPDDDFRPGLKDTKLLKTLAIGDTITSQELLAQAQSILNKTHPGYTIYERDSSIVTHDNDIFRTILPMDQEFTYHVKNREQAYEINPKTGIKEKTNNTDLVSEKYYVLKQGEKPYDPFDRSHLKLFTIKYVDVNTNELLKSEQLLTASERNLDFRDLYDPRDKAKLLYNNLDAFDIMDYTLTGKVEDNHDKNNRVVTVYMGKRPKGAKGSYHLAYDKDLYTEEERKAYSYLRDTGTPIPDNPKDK
# [20] = test system: Streptococcus; assay: Group A Streptococcus viability loss, dose response, counter-screen for streptokinase expression inhibitor project, luminescence, BacTiterGlo (AID 1915); assay type: functional, organism-based;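 also: potency for reduction of bacterial viability or growth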
# [21] = test system: Streptococcus sp. 'group A'; assay: growth inhibition of control SK(-) GAS strain, dose response, counter-screen for streptokinase expression inhibitor project, luminescence, kanamycin, BacTiterGlo, confirmation (AID 1900); assay type: functional, organism-based
# [22] = molecular target: T4, Fatty acid synthase (Homo sapiens, UniProt P49327); assay: FAS thioesterase domain inhibitors, dose response, biochemical, endpoint fluorescence intensity, uHTS hits (AID 624327); assay type: functional;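 also: fluorescence from hydrolysis of an O-methyl fluorescein acyl ester substrate by the enzyme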
# T4 sequence (P49327 whole entry, the tested form may be a part): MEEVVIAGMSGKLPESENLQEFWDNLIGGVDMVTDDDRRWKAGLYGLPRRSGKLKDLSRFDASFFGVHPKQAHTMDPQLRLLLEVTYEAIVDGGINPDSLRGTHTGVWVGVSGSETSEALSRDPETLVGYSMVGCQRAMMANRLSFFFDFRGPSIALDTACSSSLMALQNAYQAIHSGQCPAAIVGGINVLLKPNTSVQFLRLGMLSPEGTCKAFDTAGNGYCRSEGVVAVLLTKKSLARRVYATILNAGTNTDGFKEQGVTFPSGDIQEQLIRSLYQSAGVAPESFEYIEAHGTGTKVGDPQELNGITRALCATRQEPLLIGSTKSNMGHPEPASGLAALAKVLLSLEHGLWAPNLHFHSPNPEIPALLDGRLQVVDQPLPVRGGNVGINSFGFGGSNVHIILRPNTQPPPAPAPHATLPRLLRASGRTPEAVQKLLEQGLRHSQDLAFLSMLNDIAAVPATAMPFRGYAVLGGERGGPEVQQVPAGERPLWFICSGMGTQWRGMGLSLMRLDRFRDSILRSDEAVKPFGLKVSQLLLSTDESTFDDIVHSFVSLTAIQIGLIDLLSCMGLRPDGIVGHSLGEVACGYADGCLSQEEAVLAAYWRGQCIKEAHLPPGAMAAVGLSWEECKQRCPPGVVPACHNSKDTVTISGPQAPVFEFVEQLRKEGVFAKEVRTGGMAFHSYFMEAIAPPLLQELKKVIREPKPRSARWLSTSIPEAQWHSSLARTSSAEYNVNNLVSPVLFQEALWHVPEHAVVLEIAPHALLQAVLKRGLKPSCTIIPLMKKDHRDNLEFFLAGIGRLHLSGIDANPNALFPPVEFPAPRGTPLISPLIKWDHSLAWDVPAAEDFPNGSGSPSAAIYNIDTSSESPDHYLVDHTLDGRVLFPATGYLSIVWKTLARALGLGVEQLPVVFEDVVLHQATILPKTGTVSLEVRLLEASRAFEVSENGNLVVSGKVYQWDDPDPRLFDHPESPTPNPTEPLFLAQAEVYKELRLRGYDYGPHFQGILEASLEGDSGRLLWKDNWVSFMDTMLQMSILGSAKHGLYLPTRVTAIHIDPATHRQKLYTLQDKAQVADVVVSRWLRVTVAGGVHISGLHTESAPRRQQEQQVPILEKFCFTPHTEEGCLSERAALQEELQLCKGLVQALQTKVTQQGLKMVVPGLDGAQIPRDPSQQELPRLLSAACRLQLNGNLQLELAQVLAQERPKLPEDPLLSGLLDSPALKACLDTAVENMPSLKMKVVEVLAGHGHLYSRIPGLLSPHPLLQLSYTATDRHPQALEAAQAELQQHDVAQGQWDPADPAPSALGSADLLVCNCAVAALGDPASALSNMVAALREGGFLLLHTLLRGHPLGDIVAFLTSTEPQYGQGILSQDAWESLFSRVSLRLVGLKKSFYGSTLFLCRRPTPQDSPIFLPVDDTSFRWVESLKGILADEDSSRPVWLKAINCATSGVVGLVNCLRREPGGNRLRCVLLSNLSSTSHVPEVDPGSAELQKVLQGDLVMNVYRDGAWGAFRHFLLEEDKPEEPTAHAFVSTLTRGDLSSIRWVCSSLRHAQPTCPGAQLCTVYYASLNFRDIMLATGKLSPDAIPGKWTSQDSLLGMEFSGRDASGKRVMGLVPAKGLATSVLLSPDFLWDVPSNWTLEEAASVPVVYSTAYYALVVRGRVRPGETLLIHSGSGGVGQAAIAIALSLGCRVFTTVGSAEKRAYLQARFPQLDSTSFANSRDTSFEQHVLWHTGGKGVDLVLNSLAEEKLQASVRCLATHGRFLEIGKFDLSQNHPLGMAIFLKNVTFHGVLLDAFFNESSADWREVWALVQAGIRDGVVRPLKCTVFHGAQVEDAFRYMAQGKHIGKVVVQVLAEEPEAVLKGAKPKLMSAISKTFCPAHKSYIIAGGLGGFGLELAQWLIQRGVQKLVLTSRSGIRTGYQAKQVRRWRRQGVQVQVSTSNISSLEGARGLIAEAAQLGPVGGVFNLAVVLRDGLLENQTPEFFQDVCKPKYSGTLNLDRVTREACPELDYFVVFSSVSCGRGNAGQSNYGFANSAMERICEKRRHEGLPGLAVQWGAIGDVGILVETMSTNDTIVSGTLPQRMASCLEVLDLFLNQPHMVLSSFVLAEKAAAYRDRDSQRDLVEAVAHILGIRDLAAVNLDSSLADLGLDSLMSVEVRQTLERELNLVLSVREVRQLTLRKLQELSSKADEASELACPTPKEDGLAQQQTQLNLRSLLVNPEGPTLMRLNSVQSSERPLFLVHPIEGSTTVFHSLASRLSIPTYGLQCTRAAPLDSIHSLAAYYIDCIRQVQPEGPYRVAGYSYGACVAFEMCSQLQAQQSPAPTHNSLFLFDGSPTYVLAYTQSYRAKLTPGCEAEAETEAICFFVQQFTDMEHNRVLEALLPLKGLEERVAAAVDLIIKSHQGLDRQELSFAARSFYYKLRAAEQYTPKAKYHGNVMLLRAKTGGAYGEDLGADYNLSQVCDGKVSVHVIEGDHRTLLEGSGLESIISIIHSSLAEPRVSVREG
# [23] = microbe, parasite or virus in culture; assay type: functional; settings: Mycobacterium tuberculosis
# [24] = molecular target: T4, Fatty acid synthase; assay: FAS thioesterase domain inhibitors, dose response, biochemical, kinetic fluorescence intensity (AID 624326); assay type: functional;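 also: rate of fluorescence rise from hydrolysis of a fluorogenic O-methyl fluorescein ester substrate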
# [25] = Luminescence Cell-Based Dose Retest to Confirm Inhibitors of Cancer Stem Cells. [Related pubchem assays (depositor defined):AID2717, AID2721]; assay type: functional; settings: Homo sapiens
smiles,measurement,setting,value
COC(=O)C1=CC[C@@H]2C(C(=O)O)=CO[C@@H](OC3OC(CO)C(O)C(O)C3O)[C@H]12 (some centres not stated),GI50,[1],> 300 µM (inactive)
same,GI50,[2],> 300 µM (inactive)
same,GI50,[3],> 139 µM (inactive)
O=C1c2cccc3cc4ccccc4c(c23)C(=O)N1CCNCCN1C(=O)c2cccc3cc4ccccc4c(c23)C1=O,GI50,[1],1.91 µM (inactive)
same,GI50,[2],0.27 µM (active)
same,GI50,[3],0.16 µM (active)
CCC1OC(=O)C(C)C(OC2CC(C)(O)C(O)C(C)O2)C(C)C(O)C(C)(O)CC(C)C(=O)C(C)C(O)C1C (configuration not stated),GI50,[1],> 300 µM (inactive)
same,GI50,[2],> 300 µM (inactive)
same,GI50,[3],> 300 µM (inactive)
COc1cc(/C=N/NC(=O)C2COc3ccccc3O2)ccc1O (configuration not stated),IC50,[4],8.24 µM (active)
CCCn1cnc2cc(NCc3cccc(OC)c3O)ccc21,IC50,[4],22.1 µM (active)
same,IC50,[5],> 100 µM (inactive)
CCC/C=C/C=C\C(=O)O[C@@H]1[C@@H](C)[C@]2(O)[C@@H]3C=C(C)C(=O)[C@H]3CC(COC(C)=O)=C[C@H]2[C@@H]2C(C)(C)[C@]12OC(C)=O,GI50,[1],1.98 µM (inactive)
same,GI50,[2],1.12 µM (inactive)
same,GI50,[3],1.79 µM (inactive)
COc1cc(/C=N/NC(=O)c2nnn(-c3nonc3N)c2-c2cccs2)ccc1O,IC50,[4],19.4 µM (active)
O=S(=O)(c1cccc(C(F)(F)F)c1)N1CCC(c2nc(O)c3nnn(Cc4cccc(F)c4)c3n2)CC1,EC50,[6],> 350 µM (not active)
same,EC50,[7],> 350 µM (not active)
N#Cc1ccccc1S(=O)(=O)N1CCN(c2cnccn2)CC1,EC50,[6],> 350 µM (not active)
same,EC50,[7],> 350 µM (not active)
CN1CCN(S(=O)(=O)c2ccc(Sc3nnnn3-c3ccccc3)c([N+](=O)[O-])c2)CC1,AC50,[8],3.9 µM (active)
same,AC50,[9],> 70 µM (inactive)
same,AC50,[10],7.28 µM (active)
O=C(Nc1cnc2ccccn2c1=O)c1ccc(Cl)cc1Cl,EC50,[11],5.78 µM (active)
same,EC50,[12],5 µM (active)
same,AC50,[13],2.55 µM (active)
same,EC50,[14],10.1 µM (inconclusive)
Cc1ccc(-n2ncc3c(N4CCN(c5ccc(F)cc5)CC4)ncnc32)c(C)c1,AC50,[8],3.24 µM (active)
same,AC50,[9],2.94 µM (active)
same,AC50,[10],5.66 µM (active)
O=S(=O)(c1ccc(C(F)(F)F)cc1)N1CCC(c2nc(O)c3nnn(Cc4ccc(F)cc4)c3n2)CC1,EC50,[6],> 350 µM (not active)
same,EC50,[7],> 350 µM (not active)
O=Cc1cccn1-c1ccc(O)cc1,IC50,[4],> 100 µM (active)
NC(=S)N/N=C/c1ccc(OC(=O)COc2ccccc2Cl)cn1,GI50,[1],9.29 µM (inactive)
same,GI50,[2],3.31 µM (inactive)
same,GI50,[3],4.97 µM (inactive)
Cc1ccc(C(CC(=O)O)C2CCOC(C)(C)C2)cc1 (configuration not stated),EC50,[6],> 350 µM (not active)
same,EC50,[7],> 350 µM (not active)
Oc1ccc(N2CCN(C(c3ccccn3)c3nnnn3C3CCCC3)CC2)cc1 (configuration not stated),IC50,[4],6.25 µM (active)
CCOC(=O)CNC(=O)N(CC)C12CC3CC(CC(C3)C1)C2,GI50,[1],109 µM (inactive)
same,GI50,[2],79.1 µM (inactive)
same,GI50,[3],131 µM (inactive)
Cc1cccc(/C=N\NC(=O)c2ccc(Cl)cc2)c1O,EC50,[6],> 350 µM (not active)
same,EC50,[15],9.57 µM (active)
same,EC50,[7],6.37 µM (active)
same,EC50,[16],91 µM (active)
same,EC50,[17],0.877 µM (active)
same,AC50,[18],0.597 µM (active)
O=C(O)c1cc(N/N=C/c2cccc3ccccc23)ccc1Cl,IC50,[4],> 100 µM (active)
CC(C)C1C(=O)N(Cc2cn(CCC3OCCO3)nn2)CCS(=O)(=O)N1Cc1ccc(-c2ccc(Cl)c(Cl)c2)cc1 (configuration not stated),AC50,[8],1.28 µM (active)
same,AC50,[9],> 70 µM (inactive)
same,AC50,[10],3.36 µM (active)
c1cnc(N2CCN(c3ccc4ccccc4n3)CC2)nc1,EC50,[6],> 350 µM (not active)
same,EC50,[7],11.9 µM (active)
same,EC50,[16],> 260 µM (inactive)
Cc1ccccc1/C=C/C(=O)c1ccc([N+](=O)[O-])o1,IC50,[4],83.2 µM (active)
same,EC50,[19],50.9 µM (inconclusive)
same,EC50,[20],10.6 µM (active)
same,EC50,[21],2.37 µM (active)
same,AC50,[18],3.15 µM (active)
COCCn1c(SCC(=O)NCc2ccco2)nnc1-c1c[nH]c2ccccc12,AC50,[13],283 µM (active)
N#Cc1c(-c2ccccc2)c(-c2ccccc2)nn(CC(=O)NNC(=O)Nc2ccc(Cl)c(Cl)c2)c1=O,IC50,[22],7.91 µM (active)
same,CC50,[23],32.9 µM (active)
same,EC50,[19],4 µM (active)
same,EC50,[20],103 µM (active)
same,EC50,[21],5.78 µM (active)
same,IC50,[24],8.07 µM (active)
same,AC50,[25],1.75 µM (active)
COC(=O)C1=C(c2ccc(-c3ccccc3)c(F)c2)C[C@@H]2CC[C@H]1N2C(=O)NCC1CC1,AC50,[8],4.32 µM (active)
same,AC50,[9],> 70 µM (inactive)
same,AC50,[10],30.6 µM (active)
Cc1ccc(C(=O)Nc2sc(Cc3ccc4c(c3)OCO4)c(C)c2C(N)=O)cc1,AC50,[13],130 µM (active)

# Source: ChEMBL document CHEMBL1201862, “PubChem BioAssay data set” (2004)
